ChEMBL document CHEMBL1201862, “PubChem BioAssay data set” (2004)
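All cell lines were grown in 96-well plates and treated with compound for 48 hours. At the GI50, growth is halved.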 Calls of active or inactive are those of the source. No stated cut-off is given here; in the data, active = GI50 up to about 1.1 µM and inactive = higher.

Assays:
Experiment in all cases: DTP human tumour cell line panel, 48 h
ACHN = system: ACHN
RPMI-8226 = system: RPMI-8226
MOLT-4 = system: MOLT-4
HT-29 = system: HT-29
Malme-3M = system: Malme-3M
U-251 = system: U-251
NCI-H460 = system: NCI-H460
COLO 205 = system: COLO 205
K562 = system: K562
HCT-116 = system: HCT-116
A498 = system: A498
OVCAR-8 = system: OVCAR-8
A549 = system: A549
SF-268 = system: SF-268
UACC-62 = system: UACC-62
HOP-62 = system: HOP-62

Measured: GI50

C[n+]1cn(CC(=O)c2ccccc2)c(C(N)=O)c1N
inactive: ACHN > 100 µM | RPMI-8226 45.1 µM | MOLT-4 > 100 µM | HT-29 > 100 µM | Malme-3M > 100 µM | U-251 94.6 µM | NCI-H460 > 100 µM | COLO 205 41.4 µM | K562 > 10 µM | HCT-116 24.2 µM | A498 > 100 µM | OVCAR-8 > 100 µM | A549 > 100 µM | SF-268 > 100 µM | UACC-62 > 100 µM | HOP-62 > 100 µM

O/N=C1\C(=C\c2ccc3c(c2)OCCO3)CCCC1C(NO)c1ccc2c(c1)OCCO2 (stereo unspecified)
inactive: ACHN 34.5 µM | RPMI-8226 16.3 µM | MOLT-4 10.1 µM | HT-29 17.5 µM | Malme-3M 25.4 µM | U-251 19.3 µM | NCI-H460 20.5 µM | COLO 205 32.4 µM | HCT-116 18.7 µM | A498 16 µM | OVCAR-8 31.4 µM | A549 25.2 µM | SF-268 18.2 µM | UACC-62 16.5 µM | HOP-62 22 µM

O=C(O)Cc1ccc2c(c1O)C(=O)c1c(ccc(CC(=O)O)c1O)C2=O
inactive: ACHN > 100 µM | RPMI-8226 > 100 µM | MOLT-4 > 100 µM | HT-29 > 100 µM | Malme-3M > 100 µM | U-251 > 100 µM | NCI-H460 > 100 µM | COLO 205 > 100 µM | K562 > 100 µM | HCT-116 > 100 µM | A498 > 100 µM | OVCAR-8 > 100 µM | A549 > 100 µM | SF-268 > 100 µM | HOP-62 > 100 µM

CCN(CC)c1ccc(/N=N/c2ccc(-c3nc4cccnc4o3)cc2)cc1
inactive: ACHN > 100 µM | RPMI-8226 > 100 µM | MOLT-4 > 100 µM | HT-29 > 100 µM | Malme-3M > 100 µM | U-251 > 100 µM | COLO 205 > 100 µM | K562 > 100 µM | HCT-116 > 100 µM | A498 > 100 µM | OVCAR-8 > 100 µM | A549 > 100 µM | SF-268 > 100 µM | UACC-62 > 100 µM | HOP-62 > 100 µM

COC(=O)/C(=N/O)C(C(=O)C=C(C)C)C(=O)C(=O)Nc1nc2ccc([N+](=O)[O-])cc2s1 (stereo unspecified)
inactive: ACHN 24.4 µM | RPMI-8226 27.9 µM | MOLT-4 23.9 µM | HT-29 59.7 µM | Malme-3M 27.5 µM | U-251 49.5 µM | NCI-H460 37.9 µM | COLO 205 41.6 µM | K562 28.9 µM | HCT-116 41.7 µM | A498 10.5 µM | OVCAR-8 39.5 µM | A549 30.8 µM | SF-268 28.3 µM | UACC-62 32.6 µM | HOP-62 32.9 µM

Cc1cc(NS(=O)(=O)c2ccc(Nc3c4ccccc4nc4c(C(=O)Nc5ccc(S(=O)(=O)N=C(N)N)cc5)cccc34)cc2)no1
inactive: ACHN > 100 µM | RPMI-8226 > 100 µM | MOLT-4 > 100 µM | HT-29 > 100 µM | Malme-3M > 100 µM | U-251 > 100 µM | NCI-H460 > 100 µM | COLO 205 > 100 µM | K562 > 100 µM | HCT-116 > 100 µM | A498 > 100 µM | OVCAR-8 > 100 µM | A549 > 100 µM | SF-268 > 100 µM | UACC-62 > 100 µM | HOP-62 > 100 µM

Cc1c(OCCCOc2ccc3c(=O)cc(-c4ccccc4)oc3c2C)ccc2c(=O)cc(-c3ccccc3)oc12
inactive: RPMI-8226 > 100 µM | MOLT-4 > 100 µM | HT-29 > 100 µM | Malme-3M > 100 µM | U-251 > 100 µM | NCI-H460 > 100 µM | K562 59.2 µM | HCT-116 > 100 µM | A498 > 100 µM | OVCAR-8 > 100 µM | A549 > 100 µM | SF-268 > 100 µM | UACC-62 > 100 µM | HOP-62 61.1 µM

Cn1cc2ccccc2c1-c1nc(F)nc(F)n1
inactive: ACHN > 100 µM | RPMI-8226 33 µM | MOLT-4 55 µM | HT-29 > 100 µM | Malme-3M > 100 µM | U-251 > 100 µM | NCI-H460 > 100 µM | COLO 205 > 100 µM | K562 > 100 µM | HCT-116 > 100 µM | A498 > 100 µM | A549 > 100 µM | SF-268 > 100 µM | HOP-62 > 100 µM

O=C(C#Cc1ccccc1)N1c2ccccc2CC1c1c[nH]c2ccccc12 (stereo unspecified)
inactive: ACHN 19.7 µM | RPMI-8226 13 µM | MOLT-4 9.02 µM | HT-29 18 µM | Malme-3M 14.9 µM | U-251 17.5 µM | NCI-H460 18.6 µM | COLO 205 14.5 µM | K562 10.7 µM | HCT-116 13.4 µM | A498 28.9 µM | OVCAR-8 11.6 µM | A549 18.6 µM | UACC-62 7.82 µM | HOP-62 8.95 µM
